Source: ChEMBL document CHEMBL1201862, “PubChem BioAssay data set” (2004)
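In this assay, cells in 96-well plates receive the compound at five concentrations for 48 hours. Endpoints are linearly interpolated between the surrounding concentrations. The concentration for 50% growth inhibition is given as GI50.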 Activity calls are given as the source filed them. No stated cut-off is given here; in the data, active = GI50 up to about 1.1 µM and inactive = higher.

Tests used:
Assay in all cases: NCI-60 cell line screen, 48 h
NCI-H522 = test system: NCI-H522
A498 = test system: A498
NCI/ADR-RES = test system: NCI/ADR-RES
Hs-578T = test system: Hs-578T
SW-620 = test system: SW-620
U-251 = test system: U-251
MDA-MB-435 = test system: MDA-MB-435
CAKI-1 = test system: CAKI-1
HCT-116 = test system: HCT-116
786-0 = test system: 786-0
SN12C = test system: SN12C
SNB-75 = test system: SNB-75
OVCAR-3 = test system: OVCAR-3
BT-549 = test system: BT-549
IGROV-1 = test system: IGROV-1
COLO 205 = test system: COLO 205
PC-3 = test system: PC-3
RPMI-8226 = test system: RPMI-8226
MDA-N = test system: MDA-N
Malme-3M = test system: Malme-3M
EKVX = test system: EKVX
HOP-62 = test system: HOP-62
UACC-62 = test system: UACC-62
KM12 = test system: KM12
UO-31 = test system: UO-31
OVCAR-4 = test system: OVCAR-4
K562 = test system: K562
HL-60 = test system: HL-60
HCT-15 = test system: HCT-15
MOLT-4 = test system: MOLT-4
SK-MEL-5 = test system: SK-MEL-5
HCC 2998 = test system: HCC 2998
OVCAR-8 = test system: OVCAR-8
MDA-MB-231 = test system: MDA-MB-231
ACHN = test system: ACHN
SF-268 = test system: SF-268
DU-145 = test system: DU-145
SK-MEL-28 = test system: SK-MEL-28
MCF7 = test system: MCF7
SNB-19 = test system: SNB-19
NCI-H460 = test system: NCI-H460
RXF 393 = test system: RXF 393
TK-10 = test system: TK-10
SR = test system: SR
OVCAR-5 = test system: OVCAR-5
SF-539 = test system: SF-539
M14 = test system: M14
NCI-H226 = test system: NCI-H226
NCI-H23 = test system: NCI-H23
A549 = test system: A549
LOX IMVI = test system: LOX IMVI
SF-295 = test system: SF-295
UACC-257 = test system: UACC-257
SK-MEL-2 = test system: SK-MEL-2
SK-OV-3 = test system: SK-OV-3
HT-29 = test system: HT-29
CCRF-CEM = test system: CCRF-CEM
T47D = test system: T47D

Measured: GI50

COc1cc(OC)c2nc(C)c(CCCl)c(Cl)c2c1
> 100 µM: HCT-15
inactive: NCI-H522 > 100 µM | A498 > 100 µM | NCI/ADR-RES > 100 µM | Hs-578T > 100 µM | SW-620 > 100 µM | U-251 > 100 µM | MDA-MB-435 > 100 µM | CAKI-1 > 100 µM | HCT-116 > 100 µM | 786-0 > 100 µM | SN12C > 100 µM | SNB-75 > 100 µM | OVCAR-3 > 100 µM | BT-549 > 100 µM | IGROV-1 > 100 µM | COLO 205 > 100 µM | PC-3 > 100 µM | RPMI-8226 > 100 µM | MDA-N > 100 µM | Malme-3M > 100 µM | EKVX > 100 µM | HOP-62 > 100 µM | UACC-62 > 100 µM | KM12 > 100 µM | UO-31 > 100 µM | OVCAR-4 > 100 µM | K562 > 100 µM | HL-60 > 100 µM | MOLT-4 > 100 µM | SK-MEL-5 > 10 µM | HCC 2998 > 100 µM | OVCAR-8 > 100 µM | MDA-MB-231 > 100 µM | ACHN > 100 µM | SF-268 > 100 µM | DU-145 > 100 µM | SK-MEL-28 > 100 µM | MCF7 > 100 µM | SNB-19 > 100 µM | NCI-H460 > 100 µM | RXF 393 > 100 µM | TK-10 > 100 µM | SR > 100 µM | OVCAR-5 > 100 µM | SF-539 > 100 µM | M14 > 100 µM | NCI-H226 > 100 µM | NCI-H23 > 100 µM | A549 > 100 µM | LOX IMVI > 100 µM | SF-295 > 100 µM | UACC-257 > 100 µM | SK-MEL-2 > 100 µM | SK-OV-3 > 100 µM | HT-29 > 100 µM | CCRF-CEM > 100 µM

COc1ccc2c(c1)CC[C@@H]1[C@@H]2CC[C@]2(C)C(=O)/C(=C/c3ccc(C#N)cc3)C[C@@H]12
inactive: NCI-H522 > 100 µM | A498 > 100 µM | NCI/ADR-RES > 100 µM | SW-620 > 100 µM | U-251 > 100 µM | MDA-MB-435 > 100 µM | CAKI-1 > 100 µM | HCT-116 > 100 µM | 786-0 > 100 µM | SN12C > 100 µM | SNB-75 > 100 µM | BT-549 > 100 µM | IGROV-1 > 100 µM | COLO 205 > 100 µM | PC-3 > 100 µM | RPMI-8226 > 100 µM | MDA-N > 100 µM | Malme-3M > 100 µM | EKVX > 100 µM | HOP-62 97.1 µM | UACC-62 > 100 µM | KM12 > 100 µM | UO-31 > 100 µM | OVCAR-4 77.1 µM | K562 > 100 µM | MOLT-4 > 100 µM | SK-MEL-5 > 100 µM | HCC 2998 > 100 µM | OVCAR-8 > 100 µM | MDA-MB-231 > 100 µM | ACHN > 100 µM | SF-268 > 100 µM | DU-145 > 100 µM | SK-MEL-28 > 100 µM | MCF7 > 100 µM | T47D > 100 µM | SNB-19 > 100 µM | NCI-H460 > 100 µM | RXF 393 > 100 µM | TK-10 > 100 µM | SR > 100 µM | OVCAR-5 > 100 µM | SF-539 > 100 µM | M14 > 100 µM | NCI-H226 > 100 µM | NCI-H23 > 100 µM | A549 > 100 µM | LOX IMVI > 100 µM | SF-295 81.3 µM | UACC-257 > 100 µM | SK-MEL-2 > 100 µM | SK-OV-3 > 100 µM | CCRF-CEM > 100 µM
> 100 µM: HCT-15
